Ki, inhibition and IC50 data for seven molecules are collected here from paper PMC6028563, “Probing Substituents in the 1- and 3-Position: Tetrahydropyrazino-Annelated Water-Soluble Xanthine Derivatives as Multi-Target Drugs With Potent Adenosine Receptor Antagonistic Activity” (Frontiers in Chemistry, 2018).

Bounds are passed on as bounds.

One assay has as its target T1, human A2A AR (Homo sapiens, UniProt P29274).
T1 construct: expressed in transfected cells; host or cells: CHO cells
Put plainly: Radioligand binding assay at human A2A AR vs. [^3H]MSX-2. The following applies: CHO cell membranes, n = 3, read-out: Ki ± SEM, A2A vs. [^3H]MSX-2. The method, then: (§1) Membrane preparations and radioligand binding assays at rat A1 (rat brain cortex) and rat A2A ARs (rat brain striatum) were performed as previously described (Ozola et al., [2003]; Alnouri et al., [2015]). For assays at human A1, A2A, A2B, and A3 ARs, CHO cell membranes expressing one of the human AR subtypes were used as previously reported (Klotz et al., [1998]; Alnouri et al., [2015]; De Filippo et al., [2016]).
(§2) The synthesized tetrahydropyrazino[2,1-f ]purinediones 13–20 were evaluated in radioligand binding assays for their affinity to A1 ARs of rat brain cortical membrane and to A2A ARs of rat brain striatal membrane preparations. Selected compounds were further investigated for their affinity to human A1 and A2A ARs recombinantly expressed in Chinese hamster ovary (CHO) cells. All compounds were additionally investigated for their affinity to human A2B and A3 ARs recombinantly expressed in CHO cells to determine their AR subtype selectivity. […] It is well known that all xanthine derivatives lacking a ribose moiety, including tricyclic compounds, can only block ARs, but never act as AR agonists; therefore, additional functional studies were not required. […] Potent MAO-B inhibitors were additionally investigated for inhibition of human MAO-A to assess their selectivity. Results are presented in Tables 1–6, and data of standard ligands are included for comparison.

Another assay addresses T2, human A2B AR (Homo sapiens, UniProt P29275).
T2 construct: expressed in transfected cells; host or cells: CHO cells
T2 sequence (P29275 1-332): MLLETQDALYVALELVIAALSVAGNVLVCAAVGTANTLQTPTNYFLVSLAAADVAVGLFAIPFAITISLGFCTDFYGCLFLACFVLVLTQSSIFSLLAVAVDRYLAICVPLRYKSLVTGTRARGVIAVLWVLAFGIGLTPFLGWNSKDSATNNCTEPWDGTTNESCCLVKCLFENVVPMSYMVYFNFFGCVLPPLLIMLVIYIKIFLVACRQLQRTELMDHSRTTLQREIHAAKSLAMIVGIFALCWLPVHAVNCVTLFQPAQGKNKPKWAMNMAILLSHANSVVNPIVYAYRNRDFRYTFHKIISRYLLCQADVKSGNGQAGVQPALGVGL
Put plainly: Radioligand binding assay at human A2B AR vs. [^3H]PSB-603. The following applies: for Ki: CHO cell membranes, n = 2 (n = 3 where marked a), read-out: Ki ± SEM, A2B vs. [^3H]PSB-603; for inhibition at 1 µM: at 1,000 nM, read-out: % inhibition of radioligand binding at indicated concentration, A2B vs. [^3H]PSB-603. Summed up:
(§3)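 Source of receptor: rat brain cortex (A1), rat brain striatum (A2A), recombinant CHO cell membranes (human subtypes). Binding only.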

The target of another assay is T3, human A3 AR (Homo sapiens, UniProt P0DMS8).
T3 construct: expressed in transfected cells; host or cells: CHO cells
T3 sequence (P0DMS8 1-318): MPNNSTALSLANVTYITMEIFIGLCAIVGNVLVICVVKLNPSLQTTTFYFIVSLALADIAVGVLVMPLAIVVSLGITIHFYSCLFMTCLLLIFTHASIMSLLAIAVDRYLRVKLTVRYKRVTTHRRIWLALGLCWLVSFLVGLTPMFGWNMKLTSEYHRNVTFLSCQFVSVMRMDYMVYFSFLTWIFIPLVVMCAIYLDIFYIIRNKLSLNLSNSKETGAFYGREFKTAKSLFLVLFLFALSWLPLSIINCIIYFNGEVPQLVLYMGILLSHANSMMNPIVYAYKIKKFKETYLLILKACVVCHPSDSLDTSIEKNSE
Put plainly: Radioligand binding assay at human A3 AR vs. [^3H]PSB-11. The conditions noted are these: for Ki: CHO cell membranes, n = 2 (n = 3 where marked a), read-out: Ki ± SEM, A3 vs. [^3H]PSB-11; for inhibition at 10 µM: at 10,000 nM, read-out: % inhibition of radioligand binding at indicated concentration, A3 vs. [^3H]PSB-11. Summed up:
as §3

Another assay concerns the target T4, rat A2A AR (Rattus norvegicus, UniProt P30543).
T4 construct: A2A ARs of rat brain striatal membrane preparations; from tissue; host or cells: rat brain striatum membranes
Put plainly: Radioligand binding assay at rat A2A AR (rat brain striatum) vs. [^3H]MSX-2. The following applies: rat (r); rat brain striatum; n = 3; read-out: Ki ± SEM, A2A vs. [^3H]MSX-2. The method, boiled down: as §3

Another assay has as its target T5, human A1 AR (Homo sapiens, UniProt P30542).
T5 construct: expressed in transfected cells; host or cells: CHO cells
T5 sequence (P30542 1-326): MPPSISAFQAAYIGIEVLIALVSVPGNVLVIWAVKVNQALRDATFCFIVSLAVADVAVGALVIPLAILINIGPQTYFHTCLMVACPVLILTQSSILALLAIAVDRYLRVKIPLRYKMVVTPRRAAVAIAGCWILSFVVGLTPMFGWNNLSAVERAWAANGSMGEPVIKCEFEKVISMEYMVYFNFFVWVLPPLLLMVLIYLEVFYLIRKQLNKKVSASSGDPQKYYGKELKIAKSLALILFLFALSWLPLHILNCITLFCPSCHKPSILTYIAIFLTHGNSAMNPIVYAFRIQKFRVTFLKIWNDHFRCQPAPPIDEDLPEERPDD
Put plainly: Radioligand binding assay at human A1 AR vs. [^3H]CCPA. The following applies: human (h); CHO cell membranes; n = 3. The method, then:
as §1, §2

The next assay concerns the target T6, rat A1 AR (Rattus norvegicus, UniProt P25099).
T6 construct: A1 ARs of rat brain cortical membrane; from tissue; host or cells: rat brain cortex membranes
T6 sequence (P25099 1-326): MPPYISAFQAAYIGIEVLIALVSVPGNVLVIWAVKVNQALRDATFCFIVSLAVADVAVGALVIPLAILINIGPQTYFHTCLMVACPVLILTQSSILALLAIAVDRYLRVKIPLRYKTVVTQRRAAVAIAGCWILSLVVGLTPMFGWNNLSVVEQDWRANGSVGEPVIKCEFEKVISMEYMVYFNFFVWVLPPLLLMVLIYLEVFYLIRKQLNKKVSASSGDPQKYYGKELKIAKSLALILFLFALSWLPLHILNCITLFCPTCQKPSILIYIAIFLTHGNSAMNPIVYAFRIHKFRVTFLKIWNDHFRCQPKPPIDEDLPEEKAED
Put plainly: Radioligand binding assay at rat A1 AR (rat brain cortex) vs. [^3H]CCPA. The following applies: rat (r); rat brain cortex; n = 3. Summed up: as §3

The target in a further assay is T7, recombinant human MAO-B (Homo sapiens, UniProt P27338).
T7 construct: purchased Sigma-Aldrich M7441; host or cells: baculovirus-infected insect cells
T7 sequence (P27338 1-520): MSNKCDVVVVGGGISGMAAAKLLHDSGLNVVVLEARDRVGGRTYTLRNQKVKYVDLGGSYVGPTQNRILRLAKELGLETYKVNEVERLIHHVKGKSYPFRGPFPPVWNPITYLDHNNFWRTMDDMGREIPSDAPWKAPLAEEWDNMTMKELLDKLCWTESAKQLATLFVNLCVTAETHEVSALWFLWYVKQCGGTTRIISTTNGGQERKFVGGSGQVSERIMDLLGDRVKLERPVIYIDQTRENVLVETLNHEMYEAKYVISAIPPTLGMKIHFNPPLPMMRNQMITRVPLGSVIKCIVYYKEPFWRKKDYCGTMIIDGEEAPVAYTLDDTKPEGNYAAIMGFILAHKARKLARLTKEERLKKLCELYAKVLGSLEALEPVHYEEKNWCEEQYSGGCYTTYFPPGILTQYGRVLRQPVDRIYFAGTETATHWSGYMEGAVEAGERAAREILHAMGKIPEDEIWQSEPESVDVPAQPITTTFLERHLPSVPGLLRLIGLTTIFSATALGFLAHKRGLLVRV
Put plainly: Monoamine oxidase assay (Amplex Red), MAO-B. Type of assay: biochemical. The conditions noted are these: for inhibition at 10 µM: at 10,000 nM (10 μM), read-out: % inhibition at indicated concentration, Human MAO-B; for IC50: n = 3, read-out: IC50 ± SEM, Human MAO-B. Summed up:
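Inhibition was measured with an Amplex Red monoamine oxidase assay, using human MAO-A and MAO-B produced recombinantly in baculovirus-infected insect cells. For rat MAO-B, liver mitochondria-enriched fractions from male Sprague Dawley rats served as enzyme source.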

T4 sequence (P30543 whole entry): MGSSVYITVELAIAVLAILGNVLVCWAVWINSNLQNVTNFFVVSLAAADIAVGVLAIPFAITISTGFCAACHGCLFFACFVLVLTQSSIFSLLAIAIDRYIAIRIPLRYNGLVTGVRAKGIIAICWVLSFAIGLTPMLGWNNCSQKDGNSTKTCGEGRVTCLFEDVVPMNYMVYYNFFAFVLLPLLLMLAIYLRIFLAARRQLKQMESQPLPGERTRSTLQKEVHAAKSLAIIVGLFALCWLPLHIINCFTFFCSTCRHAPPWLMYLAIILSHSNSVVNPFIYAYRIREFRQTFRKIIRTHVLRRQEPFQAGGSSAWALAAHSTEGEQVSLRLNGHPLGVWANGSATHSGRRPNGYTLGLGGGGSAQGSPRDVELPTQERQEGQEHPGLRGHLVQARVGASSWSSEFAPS
T1 sequence (P29274 whole entry): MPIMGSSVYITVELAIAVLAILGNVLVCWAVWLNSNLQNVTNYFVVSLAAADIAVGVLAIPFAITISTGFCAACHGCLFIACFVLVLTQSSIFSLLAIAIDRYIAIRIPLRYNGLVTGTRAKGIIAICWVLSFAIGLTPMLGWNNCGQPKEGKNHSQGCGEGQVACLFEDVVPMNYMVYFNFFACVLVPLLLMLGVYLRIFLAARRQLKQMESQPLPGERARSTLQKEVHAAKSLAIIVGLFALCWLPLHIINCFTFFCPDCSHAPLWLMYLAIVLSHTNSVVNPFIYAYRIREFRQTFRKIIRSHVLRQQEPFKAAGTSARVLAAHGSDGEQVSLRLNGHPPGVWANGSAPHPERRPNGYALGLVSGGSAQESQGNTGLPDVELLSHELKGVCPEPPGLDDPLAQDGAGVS

For `C#CCn1c(=O)c2c(nc3n2CCN(c2ccc(F)cc2)C3)n(CC)c1=O` [Compound 20b, 1-ethyl-8-(4-fluorophenyl)-3-propargyl-6,7,8,9-tetrahydropyrazino[2,1-f]purine-2,4(1H,3H)-dione], the Ki on human A2A AR is 378 ± 49 nM; at human A2B AR it was above 1000 nM; on human A3 AR, 2390 nM; on rat A2A AR it was 128 ± 20 nM; at human A1 AR, 1530 nM; on rat A1 AR it was 410 ± 60 nM. In addition, at human A2B AR, the inhibition at 1 µM was 15%. Besides, the inhibition at 10 µM at recombinant human MAO-B was 35%. Moreover, the IC50 at recombinant human MAO-B is above 10000 nM.

Take `C#CCn1c(=O)c2c(nc3n2CCN(Cc2ccccc2)C3)n(CC)c1=O` [Compound 20e, 8-benzyl-1-ethyl-3-propargyl-6,7,8,9-tetrahydropyrazino[2,1-f]purine-2,4(1H,3H)-dione]: the inhibition constant Ki was 282 ± 38 nM at human A2A AR; above 1000 nM at human A2B AR; above 10000 nM at human A3 AR; 245 ± 39 nM on rat A2A AR; 180 ± 28 nM on human A1 AR; 118 ± 28 nM at rat A1 AR. Besides, the inhibition at 1 µM at human A2B AR came to 2%. Also, the inhibition at 10 µM worked out at 35% at human A3 AR and 20% at recombinant human MAO-B. Moreover, the 50% inhibitory concentration (IC50) at recombinant human MAO-B was above 10000 nM.

For the molecule `C#CCn1c(=O)c2c(nc3n2CCN(Cc2ccccc2OC)C3)n(CC)c1=O` [Compound 20f, 1-ethyl-8-(2-methoxybenzyl)-3-propargyl-6,7,8,9-tetrahydropyrazino[2,1-f]purine-2,4(1H,3H)-dione], the inhibition constant (Ki) at human A2A AR is 311 ± 106 nM; at human A2B AR, above 1000 nM; at human A3 AR it was 7640 nM; on rat A2A AR, 1200 nM; on human A1 AR it was 210 ± 90 nM; at rat A1 AR it was 32.7 ± 5.8 nM. In addition, the inhibition at 1 µM at human A2B AR is 18%. In addition, the inhibition at 10 µM at recombinant human MAO-B turned out to be 27%. The 50% inhibitory concentration (IC50) at recombinant human MAO-B is above 10000 nM.

With `C#CCn1c(=O)c2c(nc3n2CCN(Cc2cccc(OC)c2)C3)n(CC)c1=O` [Compound 20g, 1-ethyl-8-(3-methoxybenzyl)-3-propargyl-6,7,8,9-tetrahydropyrazino[2,1-f]purine-2,4(1H,3H)-dione], the Ki on human A2A AR is 542 ± 169 nM; at human A2B AR it was above 1000 nM; at human A3 AR, above 10000 nM; on rat A2A AR, 769 ± 77 nM; at human A1 AR it was 124 ± 90 nM; on rat A1 AR, 118 ± 22 nM. Moreover, the inhibition at 1 µM on human A2B AR is 22%. The inhibition at 10 µM on human A3 AR is 40%; on recombinant human MAO-B, 41%. Further, the half-inhibitory concentration (IC50) on recombinant human MAO-B was above 10000 nM.

Consider `C#CCn1c(=O)c2c(nc3n2CCN(CCc2ccccc2)C3)n(CC)c1=O` [Compound 20h, 1-ethyl-8-phenethyl-3-propargyl-6,7,8,9-tetrahydropyrazino[2,1-f]purine-2,4(1h,3h)-dione], for which the Ki at human A2A AR is 149 ± 28 nM; on human A2B AR, above 1000 nM; on human A3 AR it was above 10000 nM; at rat A2A AR it was 1700 nM; at human A1 AR, 2440 nM; on rat A1 AR, 117 ± 2 nM. The inhibition at 1 µM at human A2B AR stood at 16%. Further, the inhibition at 10 µM came to 36% at human A3 AR and 27% at recombinant human MAO-B. In addition, the 50% inhibitory concentration (IC50) at recombinant human MAO-B was above 10000 nM.

Turning to `C#CCn1c(=O)c2c(nc3n2CCN(CCc2ccccc2OC)C3)n(CC)c1=O` [Compound 20i, 1-ethyl-8-(2-methoxyphenethyl)-3-propargyl-6,7,8,9-tetrahydropyrazino[2,1-f]purine-2,4(1H,3H)-dione], the Ki at human A2A AR was 3230 nM; on human A2B AR it was above 1000 nM; at human A3 AR, 5830 nM; on rat A2A AR, 883 ± 265 nM; at human A1 AR, 1260 nM; at rat A1 AR, 701 ± 204 nM. The inhibition at 1 µM at human A2B AR is 24%. Further, the inhibition at 10 µM at recombinant human MAO-B came to 26%. Moreover, the concentration for half-maximal inhibition (IC50) on recombinant human MAO-B is above 10000 nM.

In the case of `C#CCn1c(=O)c2c(nc3n2CCN(CCc2cccc(OC)c2)C3)n(CC)c1=O` [Compound 20j, 1-ethyl-8-(3-methoxyphenethyl)-3-propargyl-6,7,8,9-tetrahydropyrazino[2,1-f]purine-2,4(1H,3H)-dione], the inhibition constant Ki at human A2A AR was 25500 nM; at human A2B AR, above 1000 nM; at human A3 AR, above 10000 nM; at rat A2A AR, 798 ± 134 nM; on human A1 AR, 1020 nM; on rat A1 AR, 669 ± 35 nM. For the same molecule, at human A2B AR, the inhibition at 1 µM is 11%. The values for the inhibition at 10 µM at human A3 AR and at recombinant human MAO-B were 13% and 30%, respectively. Moreover, the IC50 at recombinant human MAO-B is above 10000 nM.

Broadly, the Ki is a measure of affinity in units of concentration, obtained from inhibition or displacement. The IC50 is the concentration needed to halve the response being measured.
